The values that follow come from ChEMBL document CHEMBL4706712, “Discovery and antitumor activity of Benzo[d]imidazol-containing 2,4-diarylaminopyrimidine analogues as ALK inhibitors with mutation-combating effects” (Bioorg Med Chem, 2021).

Bounds are passed on as bounds.

The target in assay [1] is ALK tyrosine kinase receptor (Homo sapiens, UniProt Q9UM73, L1196M). Nature of the assay: Inhibition of human N-terminal GST-fused ALK L1196M mutant cytoplasmic domain (1058 to 1620 residues) expressed in baculovirus infected Sf21 insect cells using Srctide as substrate measured after 1 hr by mobility shift assay.
In assay [2] the target is ALK tyrosine kinase receptor (Homo sapiens, UniProt Q9UM73, G1202R). The assay is described as follows: Inhibition of human N-terminal GST-fused ALK G1202R mutant cytoplasmic domain (1058 to 1620 residues) expressed in baculovirus infected Sf21 insect cells using Srctide as substrate measured after 1 hr by mobility shift assay.
ALK tyrosine kinase receptor (Homo sapiens, UniProt Q9UM73, G1202R), sequence (Q9UM73 19-1620 G1202R limits assumed): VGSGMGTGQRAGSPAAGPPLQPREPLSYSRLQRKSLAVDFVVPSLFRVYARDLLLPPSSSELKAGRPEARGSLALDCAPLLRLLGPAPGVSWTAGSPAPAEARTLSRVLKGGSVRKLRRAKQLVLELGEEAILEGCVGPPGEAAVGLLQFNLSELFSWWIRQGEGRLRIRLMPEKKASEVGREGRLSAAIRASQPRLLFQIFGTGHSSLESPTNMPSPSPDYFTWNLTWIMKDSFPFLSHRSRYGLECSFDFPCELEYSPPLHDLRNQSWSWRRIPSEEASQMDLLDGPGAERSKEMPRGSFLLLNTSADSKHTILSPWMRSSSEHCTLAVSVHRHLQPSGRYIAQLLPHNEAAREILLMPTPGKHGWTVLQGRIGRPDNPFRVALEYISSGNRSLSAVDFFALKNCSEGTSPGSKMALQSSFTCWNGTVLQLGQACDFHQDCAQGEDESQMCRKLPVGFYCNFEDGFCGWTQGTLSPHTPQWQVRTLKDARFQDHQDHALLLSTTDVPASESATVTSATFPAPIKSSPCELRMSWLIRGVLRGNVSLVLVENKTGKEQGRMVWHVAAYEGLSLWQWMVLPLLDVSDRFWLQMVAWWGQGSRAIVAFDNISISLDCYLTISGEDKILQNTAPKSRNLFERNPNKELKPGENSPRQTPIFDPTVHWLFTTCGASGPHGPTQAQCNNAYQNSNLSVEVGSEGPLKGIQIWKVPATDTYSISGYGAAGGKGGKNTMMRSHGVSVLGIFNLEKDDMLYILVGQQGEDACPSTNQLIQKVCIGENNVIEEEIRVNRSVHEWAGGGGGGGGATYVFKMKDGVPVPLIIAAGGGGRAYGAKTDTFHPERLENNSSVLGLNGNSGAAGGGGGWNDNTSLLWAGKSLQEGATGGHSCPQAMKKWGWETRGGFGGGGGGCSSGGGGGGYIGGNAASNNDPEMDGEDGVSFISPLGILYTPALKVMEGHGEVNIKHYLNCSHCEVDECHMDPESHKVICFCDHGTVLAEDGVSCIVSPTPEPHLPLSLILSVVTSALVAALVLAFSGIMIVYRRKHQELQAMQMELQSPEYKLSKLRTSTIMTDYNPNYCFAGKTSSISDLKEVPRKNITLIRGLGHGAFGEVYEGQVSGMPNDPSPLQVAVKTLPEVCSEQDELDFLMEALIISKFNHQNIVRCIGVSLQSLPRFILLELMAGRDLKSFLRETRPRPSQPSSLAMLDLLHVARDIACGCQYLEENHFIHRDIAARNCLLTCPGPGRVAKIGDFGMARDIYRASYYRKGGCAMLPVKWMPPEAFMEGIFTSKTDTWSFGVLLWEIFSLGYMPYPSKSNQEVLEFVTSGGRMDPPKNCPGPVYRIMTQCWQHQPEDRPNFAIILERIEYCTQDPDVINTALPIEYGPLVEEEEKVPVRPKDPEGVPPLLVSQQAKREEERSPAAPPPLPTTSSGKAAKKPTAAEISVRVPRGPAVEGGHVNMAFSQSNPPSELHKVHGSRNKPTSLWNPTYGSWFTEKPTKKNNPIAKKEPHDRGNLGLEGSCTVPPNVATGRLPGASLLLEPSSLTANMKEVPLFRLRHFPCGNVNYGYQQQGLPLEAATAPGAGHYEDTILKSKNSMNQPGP
In assay [3] the target is ALK tyrosine kinase receptor (Homo sapiens, UniProt Q9UM73). The assay is described as follows: Inhibition of human N-terminal GST-fused ALK cytoplasmic domain (1058 to 1620 residues) expressed in baculovirus infected Sf21 insect cells using Srctide as substrate measured after 1 hr by mobility shift assay.
ALK tyrosine kinase receptor (Homo sapiens, UniProt Q9UM73), sequence (Q9UM73 whole entry, the tested form may be a part): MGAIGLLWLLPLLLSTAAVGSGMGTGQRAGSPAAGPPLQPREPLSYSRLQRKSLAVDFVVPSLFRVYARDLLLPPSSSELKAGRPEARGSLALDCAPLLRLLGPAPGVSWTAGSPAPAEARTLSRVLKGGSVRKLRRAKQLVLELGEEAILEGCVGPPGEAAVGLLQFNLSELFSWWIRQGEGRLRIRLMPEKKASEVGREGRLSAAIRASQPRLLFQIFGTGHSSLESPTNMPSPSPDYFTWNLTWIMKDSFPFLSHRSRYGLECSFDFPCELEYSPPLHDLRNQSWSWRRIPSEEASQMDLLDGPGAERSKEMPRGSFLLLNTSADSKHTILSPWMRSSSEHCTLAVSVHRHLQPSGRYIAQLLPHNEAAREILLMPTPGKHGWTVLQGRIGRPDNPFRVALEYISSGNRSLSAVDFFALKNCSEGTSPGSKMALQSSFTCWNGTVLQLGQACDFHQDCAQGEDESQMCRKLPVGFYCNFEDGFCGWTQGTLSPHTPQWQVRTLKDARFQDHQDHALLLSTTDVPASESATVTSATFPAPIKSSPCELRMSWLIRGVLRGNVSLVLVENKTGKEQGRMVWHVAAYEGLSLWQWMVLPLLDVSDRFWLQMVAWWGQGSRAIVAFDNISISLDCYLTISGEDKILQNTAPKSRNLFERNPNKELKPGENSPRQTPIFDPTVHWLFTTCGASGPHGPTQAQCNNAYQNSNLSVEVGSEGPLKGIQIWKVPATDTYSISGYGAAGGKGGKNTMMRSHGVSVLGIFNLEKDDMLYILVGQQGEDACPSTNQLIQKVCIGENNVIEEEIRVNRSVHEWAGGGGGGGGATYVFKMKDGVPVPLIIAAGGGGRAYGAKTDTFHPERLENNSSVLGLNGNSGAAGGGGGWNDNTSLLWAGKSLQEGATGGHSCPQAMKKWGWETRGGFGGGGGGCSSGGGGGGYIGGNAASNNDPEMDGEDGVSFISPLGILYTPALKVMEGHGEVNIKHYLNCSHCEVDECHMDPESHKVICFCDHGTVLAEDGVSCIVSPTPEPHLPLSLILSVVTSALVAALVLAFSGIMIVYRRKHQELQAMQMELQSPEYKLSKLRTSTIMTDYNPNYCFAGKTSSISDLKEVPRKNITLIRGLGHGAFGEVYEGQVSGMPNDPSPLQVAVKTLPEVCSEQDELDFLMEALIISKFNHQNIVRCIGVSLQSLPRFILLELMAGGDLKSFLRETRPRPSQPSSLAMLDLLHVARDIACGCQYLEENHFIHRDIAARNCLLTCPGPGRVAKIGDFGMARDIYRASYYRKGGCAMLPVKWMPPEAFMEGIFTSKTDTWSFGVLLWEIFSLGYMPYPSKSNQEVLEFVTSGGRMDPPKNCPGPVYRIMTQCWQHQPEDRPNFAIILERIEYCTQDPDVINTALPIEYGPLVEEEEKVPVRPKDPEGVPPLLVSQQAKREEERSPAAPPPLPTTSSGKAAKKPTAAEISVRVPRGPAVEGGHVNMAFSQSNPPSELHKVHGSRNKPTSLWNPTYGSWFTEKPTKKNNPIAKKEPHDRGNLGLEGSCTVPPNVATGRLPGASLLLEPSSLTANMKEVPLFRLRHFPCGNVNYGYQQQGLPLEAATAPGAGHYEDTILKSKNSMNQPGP
The target in assay [4] is T1, Receptor-type tyrosine-protein kinase FLT3 (Homo sapiens, UniProt P36888).
T1 sequence (P36888 whole entry): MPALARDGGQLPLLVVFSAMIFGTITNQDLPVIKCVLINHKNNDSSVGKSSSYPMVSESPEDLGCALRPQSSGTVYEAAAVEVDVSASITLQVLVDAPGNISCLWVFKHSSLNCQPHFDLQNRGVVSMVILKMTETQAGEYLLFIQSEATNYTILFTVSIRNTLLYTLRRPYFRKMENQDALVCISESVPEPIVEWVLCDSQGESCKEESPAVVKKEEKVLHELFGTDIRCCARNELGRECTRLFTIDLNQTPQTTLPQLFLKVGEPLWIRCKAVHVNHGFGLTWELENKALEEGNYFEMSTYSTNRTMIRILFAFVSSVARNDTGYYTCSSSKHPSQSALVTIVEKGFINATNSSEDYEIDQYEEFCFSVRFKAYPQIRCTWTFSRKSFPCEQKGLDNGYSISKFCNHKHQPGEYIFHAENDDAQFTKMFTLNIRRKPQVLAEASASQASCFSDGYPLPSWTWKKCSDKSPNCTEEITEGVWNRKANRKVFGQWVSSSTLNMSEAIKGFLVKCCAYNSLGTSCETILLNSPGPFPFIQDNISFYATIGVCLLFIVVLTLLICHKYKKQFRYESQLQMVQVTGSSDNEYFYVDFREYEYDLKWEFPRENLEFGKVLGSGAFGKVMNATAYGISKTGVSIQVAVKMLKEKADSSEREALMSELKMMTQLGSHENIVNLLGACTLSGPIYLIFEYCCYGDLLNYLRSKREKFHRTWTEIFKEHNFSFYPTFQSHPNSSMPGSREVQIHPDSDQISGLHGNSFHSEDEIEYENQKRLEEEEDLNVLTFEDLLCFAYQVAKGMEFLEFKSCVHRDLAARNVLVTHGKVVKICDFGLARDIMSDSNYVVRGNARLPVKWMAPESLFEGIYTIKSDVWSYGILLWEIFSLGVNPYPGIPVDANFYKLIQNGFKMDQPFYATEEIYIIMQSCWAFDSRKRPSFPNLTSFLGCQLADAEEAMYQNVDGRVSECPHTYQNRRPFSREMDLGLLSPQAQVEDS
The assay is described as follows: Inhibition of N-terminal GST-tagged human FLT3 cytoplasmic domain (564 to 993 residues) expressed in baculovirus infected Sf21 insect cells using Srctide as substrate measured after 1 hr by mobility shift assay.

A further assay has as its system NCI-H2228. The assay is described as follows: cells. The note with it: Homo sapiens, NCI-H2228, 72 h.
The next assay deals with A549. Nature of the assay: cells. The note with it: Homo sapiens, A549, 72 h.
The subject of a further assay is KARPAS-299. The assay is described as follows: cells. The note with it: Homo sapiens, KARPAS-299, 72 h.
Assay [5] addresses Epidermal growth factor receptor (Homo sapiens, UniProt P00533). The assay is described as follows: Inhibition of N-terminal GST-tagged human EGFR cytoplasmic domain (669 to 1210 residues) expressed in baculovirus infected Sf21 insect cells using Srctide as substrate measured after 1 hr by mobility shift assay.

Epidermal growth factor receptor, sequence (P00533 whole entry, the tested form may be a part): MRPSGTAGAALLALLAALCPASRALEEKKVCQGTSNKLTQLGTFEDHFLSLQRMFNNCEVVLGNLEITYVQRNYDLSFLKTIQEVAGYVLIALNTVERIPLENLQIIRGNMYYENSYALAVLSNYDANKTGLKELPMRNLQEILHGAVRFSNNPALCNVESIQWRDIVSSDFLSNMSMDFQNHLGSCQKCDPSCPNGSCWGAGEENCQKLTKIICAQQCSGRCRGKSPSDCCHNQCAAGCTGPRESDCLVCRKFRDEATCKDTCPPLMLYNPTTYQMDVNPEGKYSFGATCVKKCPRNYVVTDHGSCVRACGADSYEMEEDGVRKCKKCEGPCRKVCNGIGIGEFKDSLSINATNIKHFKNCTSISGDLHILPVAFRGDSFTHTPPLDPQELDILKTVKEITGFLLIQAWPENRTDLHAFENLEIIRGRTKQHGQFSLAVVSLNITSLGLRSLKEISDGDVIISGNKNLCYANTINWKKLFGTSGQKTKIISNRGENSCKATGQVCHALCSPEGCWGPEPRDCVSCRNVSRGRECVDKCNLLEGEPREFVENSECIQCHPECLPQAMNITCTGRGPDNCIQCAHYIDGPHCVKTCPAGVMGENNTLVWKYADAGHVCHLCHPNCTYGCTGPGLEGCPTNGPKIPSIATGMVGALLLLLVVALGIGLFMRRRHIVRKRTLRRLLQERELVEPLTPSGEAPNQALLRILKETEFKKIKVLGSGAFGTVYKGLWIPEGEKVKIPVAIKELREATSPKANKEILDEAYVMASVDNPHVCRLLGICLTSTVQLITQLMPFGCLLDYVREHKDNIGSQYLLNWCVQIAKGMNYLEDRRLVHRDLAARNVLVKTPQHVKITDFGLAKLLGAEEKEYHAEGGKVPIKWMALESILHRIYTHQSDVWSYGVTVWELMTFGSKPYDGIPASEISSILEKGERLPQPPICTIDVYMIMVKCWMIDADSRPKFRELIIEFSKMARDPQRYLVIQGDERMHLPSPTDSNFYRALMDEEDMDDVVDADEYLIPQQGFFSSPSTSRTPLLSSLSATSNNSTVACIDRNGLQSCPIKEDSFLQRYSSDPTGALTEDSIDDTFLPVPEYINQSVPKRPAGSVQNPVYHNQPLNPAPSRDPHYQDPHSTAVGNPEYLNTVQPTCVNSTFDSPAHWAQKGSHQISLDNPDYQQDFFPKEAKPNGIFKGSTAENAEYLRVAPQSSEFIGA
Description for A549: Antiproliferative activity against human A549 cells assessed as reduction in cell growth measured after 72 hrs by MTT assay
Description for KARPAS-299: Antiproliferative activity against human KARPAS-299 cells assessed as reduction in cell growth measured after 72 hrs by MTT assay
Description for NCI-H2228: Antiproliferative activity against human NCI-H2228 cells assessed as reduction in cell growth measured after 72 hrs by MTT assay

The IC50 is the concentration that gives 50% inhibition. `CN1CCN(Cc2nc3ccc(Nc4ncc(Cl)c(Nc5ccccc5C(=O)N(C)C)n4)cc3[nH]2)CC1`: the IC50 in assay [1] is 3.8 nM; in assay [2] it was 5.7 nM; in assay [3] it was 2.7 nM; in assay [4] it was more than 200 nM.
In the case of `CN1CCN(Cc2nc3ccc(Nc4ncc(Cl)c(Nc5ccccc5NS(C)(=O)=O)n4)cc3[nH]2)CC1`, the IC50 is 4.9 nM in assay [1], 7 nM in assay [2], 3.6 nM in assay [3] and 135 nM in assay [4].
With `CC1CCN(Cc2nc3ccc(Nc4ncc(Cl)c(Nc5ccccc5NS(C)(=O)=O)n4)cc3[nH]2)CC1`, the IC50 in the assay on NCI-H2228 is 770 nM; in the assay on A549 it was more than 10000 nM; in the assay on KARPAS-299, 136 nM.
Take `CN(C)C(=O)c1ccccc1Nc1nc(Nc2ccc3nc(CN4CCN(CCO)CC4)[nH]c3c2)ncc1Cl`: the values for the IC50 in the assay with NCI-H2228, with A549 and in the assay on KARPAS-299 were 1290 nM, more than 10000 nM and 249 nM, respectively.
As for `CS(=O)(=O)Nc1ccccc1Nc1nc(Nc2ccc3nc(CN4CCC(O)CC4)[nH]c3c2)ncc1Cl`, the IC50 in the assay with NCI-H2228 was 1300 nM; in the assay on A549, more than 10000 nM; in the assay on KARPAS-299, 1290 nM.
Turning to `CS(=O)(=O)Nc1ccccc1Nc1nc(Nc2ccc3nc(CN4CCN(CCO)CC4)[nH]c3c2)ncc1Cl`, the values for the IC50 with NCI-H2228, with A549 and in the assay on KARPAS-299 were 1720 nM, more than 10000 nM and 1030 nM, respectively.
Turning to `CN(C)C(=O)c1ccccc1Nc1nc(Nc2ccc3nc(CN4CCCCC4)[nH]c3c2)ncc1Cl`, the IC50 was 337 nM in the assay on NCI-H2228, 1870 nM in the assay with A549 and 57 nM in the assay with KARPAS-299.
In the same order, the values of `CNC(=O)c1ccccc1Nc1nc(Nc2ccc3nc(CN4CCN(CCO)CC4)[nH]c3c2)ncc1Cl` are 1310 nM, more than 10000 nM and 391 nM.
Take `CN(C)C(=O)c1ccccc1Nc1nc(Nc2ccc3nc(CN4CCCC4)[nH]c3c2)ncc1Cl`: the IC50 was 5.3 nM in assay [1]; 13.3 nM in assay [2]; 3.4 nM in assay [3]; 291 nM in the assay on NCI-H2228; more than 1000 nM in assay [5]; more than 10000 nM in the assay on A549. In addition, the IC50 in assay [4] is 103 nM; in the assay with KARPAS-299, 54 nM.
In the case of `CCN1CCN(Cc2nc3ccc(Nc4ncc(Cl)c(Nc5ccccc5NS(C)(=O)=O)n4)cc3[nH]2)CC1`, the results for the IC50 in the assay with NCI-H2228, with A549 and with KARPAS-299 were 1030 nM, more than 10000 nM and 432 nM, respectively.
As for `CC(=O)Nc1ccccc1Nc1nc(Nc2ccc3nc(CN4CCN(C)CC4)[nH]c3c2)ncc1Cl`, the IC50 in the assay with NCI-H2228 was 230 nM; with A549 it was more than 10000 nM; in the assay with KARPAS-299, 107 nM.
On to `CN(C)C(=O)c1ccccc1Nc1nc(Nc2ccc3nc(CN4CCOCC4)[nH]c3c2)ncc1Cl`, for which the 50% inhibitory concentration (IC50) in the assay on NCI-H2228 was 1270 nM; with A549 it was more than 10000 nM; with KARPAS-299 it was 833 nM.
As to `CCN1CCN(Cc2nc3ccc(Nc4ncc(Cl)c(Nc5ccccc5C(=O)N(C)C)n4)cc3[nH]2)CC1`, the IC50 in the assay with NCI-H2228 was 583 nM; in the assay on A549 it was more than 10000 nM; in the assay with KARPAS-299, 203 nM.
As to `CC(=O)Nc1ccccc1Nc1nc(Nc2ccc3nc(CN(C)C)[nH]c3c2)ncc1Cl`, the IC50 in the assay on NCI-H2228 was 507 nM; in the assay on A549 it was more than 10000 nM; with KARPAS-299, 79 nM.
As for `CS(=O)(=O)Nc1ccccc1Nc1nc(Nc2ccc3nc(CN4CCCC4)[nH]c3c2)ncc1Cl`, the IC50 in the assay on NCI-H2228 was 347 nM; in the assay on A549, 1860 nM; in the assay on KARPAS-299 it was 62 nM.
For `CN(C)Cc1nc2ccc(Nc3ncc(Cl)c(Nc4ccccc4NS(C)(=O)=O)n3)cc2[nH]1`, the IC50 in assay [1] was 3.7 nM; in assay [2], 8.2 nM; in assay [3] it was 4 nM; with NCI-H2228, 326 nM; in assay [5] it was more than 1000 nM; in the assay on A549, 3010 nM. In addition, the values for the IC50 (in assay [4]; in the assay with KARPAS-299) were more than 200 nM and 56 nM, respectively.
In the case of `Cc1cc(Nc2ncc(Cl)c(Nc3ccccc3S(=O)(=O)C(C)C)n2)c(OC(C)C)cc1C1CCNCC1` [CERITINIB], the IC50 in the assay on NCI-H2228 worked out at 107 nM; in assay [4], 86.4 nM; in the assay with KARPAS-299, 31 nM.
On to `CS(=O)(=O)Nc1ccccc1Nc1nc(Nc2ccc3nc(CN4CCOCC4)[nH]c3c2)ncc1Cl`, for which the IC50 was 1070 nM in the assay on NCI-H2228, more than 10000 nM in the assay with A549 and 798 nM in the assay on KARPAS-299.
Turning to `CN(C)C(=O)c1ccccc1Nc1nc(Nc2ccc3nc(CN4CCSCC4)[nH]c3c2)ncc1Cl`, the IC50 came out at 2350 nM in the assay with NCI-H2228, 7360 nM in the assay on A549 and 1290 nM in the assay on KARPAS-299.
In the case of `CC(C)N(Cc1nc2ccc(Nc3ncc(Cl)c(Nc4ccccc4NS(C)(=O)=O)n3)cc2[nH]1)C(C)C`, the IC50 in the assay with NCI-H2228 came to 3790 nM; in the assay on A549, 5370 nM; in the assay on KARPAS-299, 2010 nM.
Regarding `CN(C)Cc1nc2ccc(Nc3ncc(Cl)c(Nc4ccccc4C(=O)N(C)C)n3)cc2[nH]1`, the IC50 in assay [1] was 3.8 nM; in assay [2], 6.9 nM; in assay [3], 3.2 nM; in the assay on NCI-H2228 it was 127 nM; in assay [5] it was more than 1000 nM; in the assay with A549, more than 10000 nM. Moreover, the values for the IC50 (in assay [4]; in the assay on KARPAS-299) were more than 200 nM and 47 nM, respectively.
For `CC(=O)Nc1ccccc1Nc1nc(Nc2ccc3nc(CN4CCC(C)CC4)[nH]c3c2)ncc1Cl`, the half-maximal inhibitory concentration (IC50) in the assay on NCI-H2228 came to 975 nM; with A549 it was 6030 nM; in the assay with KARPAS-299, 193 nM.
For the molecule `CNC(=O)c1ccccc1Nc1nc(Nc2ccc3nc(CN(C)C)[nH]c3c2)ncc1Cl`, the values for the IC50 in the assay with NCI-H2228, in the assay on A549 and with KARPAS-299 were 338 nM, 4790 nM and 62 nM, respectively.
Turning to `CNC(=O)c1ccccc1Nc1nc(Nc2ccc3nc(CN4CCC(C)CC4)[nH]c3c2)ncc1Cl`, the IC50 with NCI-H2228 is 632 nM; with A549 it was more than 10000 nM; with KARPAS-299, 77 nM.
In the case of `CS(=O)(=O)Nc1ccccc1Nc1nc(Nc2ccc3nc(CN4CCCCC4)[nH]c3c2)ncc1Cl`, the IC50 in assay [1] was 8.4 nM; in assay [2], 7.1 nM; in assay [3] it was 5.3 nM; in the assay with NCI-H2228, 429 nM; in assay [5], more than 1000 nM; in the assay on A549, 6010 nM. The IC50 in assay [4] worked out at 186 nM; in the assay on KARPAS-299, 68 nM.
Turning to `CC(=O)Nc1ccccc1Nc1nc(Nc2ccc3nc(CN4CCN(CCO)CC4)[nH]c3c2)ncc1Cl`, the IC50 is 2360 nM in the assay on NCI-H2228, more than 10000 nM with A549 and 1350 nM with KARPAS-299.
As for `CCN(CC)Cc1nc2ccc(Nc3ncc(Cl)c(Nc4ccccc4C(=O)N(C)C)n3)cc2[nH]1`, the IC50 with NCI-H2228 came out at 1450 nM; in the assay on A549, 2930 nM; in the assay on KARPAS-299, 1230 nM.
The matching figures for `CS(=O)(=O)Nc1ccccc1Nc1nc(Nc2ccc3nc(CN4CCSCC4)[nH]c3c2)ncc1Cl`: 3230 nM, more than 10000 nM and 1840 nM.
The matching figures for `CCN(CC)Cc1nc2ccc(Nc3ncc(Cl)c(Nc4ccccc4NS(C)(=O)=O)n3)cc2[nH]1`: 1230 nM, more than 10000 nM and 79 nM.
